The target of experiment [1] is T1, mTORC1 (Homo sapiens) (UniProt P42345+Q8N122+Q9BVC4). The experiment in a line: Inhibition of mTORC1 in human LY7 cells assessed as reduction in 4E-BP1 phosphorylation at 3 uM measured after 24 hrs in presence of bortezomib by Western blot analysis. Format: cell-based. In general terms: A western blot detects proteins with antibodies after separation by electrophoresis.

Experiment [2] relates to OCI-Ly10. The experiment in a line: Induction of apoptosis in human LY10 cells assessed as increase in cleaved-PARP expression at 3 uM measured after 24 hrs in presence of bortezomib by Western blot analysis. Format: functional, cell-based.
The test system of experiment [3] is LY7. The experiment in a line: Induction of apoptosis in human LY7 cells assessed as increase in cleaved-PARP expression at 3 uM measured after 24 hrs in presence of bortezomib by Western blot analysis. Format: functional, cell-based.
Experiment [4] relates to PF-382. Briefly: Induction of apoptosis in human PF-382 cells assessed as increase in cleaved-PARP expression at 5 uM measured after 24 hrs in presence of bortezomib by Western blot analysis. Format: functional, cell-based.
Experiment [5] deals with Myc proto-oncogene protein (Homo sapiens) (UniProt P01106). The experiment in a line: Inhibition of c-Myc in human LY10 cells assessed as reduction in E2F1 expression at 3 uM incubated for 24 hrs in presence of bortezomib by Western blot analysis. Format: cell-based.
Experiment [6] addresses T1, mTORC1 (Homo sapiens). The experiment in a line: Inhibition of mTORC1 in human NCI-H929 cells assessed as reduction in c-Myc expression at 5 uM measured after 24 hrs by Western blot analysis. Format: cell-based.
Experiment [7] addresses T1, mTORC1 (Homo sapiens). Briefly: Inhibition of mTORC1 in human NCI-H929 cells assessed as reduction in c-Myc expression at 5 uM measured after 24 hrs in presence of carfilzomib by Western blot analysis. Format: cell-based.
In experiment [8] the target is T1, mTORC1 (Homo sapiens). Briefly: Inhibition of mTORC1 in human SLL cells assessed as reduction in 4E-BP1 phosphorylation at 5 uM measured after 24 hrs in presence of carfilzomib by Western blot analysis. Format: cell-based.
Experiment [9] addresses T1, mTORC1 (Homo sapiens). The experiment in a line: Inhibition of mTORC1 in human NCI-H929 cells assessed as reduction in 4E-BP1 phosphorylation at 5 uM measured after 24 hrs in presence of carfilzomib by Western blot analysis. Format: cell-based.
Experiment [10] deals with T1, mTORC1 (Homo sapiens). The experiment in a line: Inhibition of mTORC1 in human LY7 cells assessed as reduction in 4E-BP1 phosphorylation at 3 uM measured after 24 hrs in presence of carfilzomib by Western blot analysis. Format: cell-based.
For experiment [11], the target named is T1, mTORC1 (Homo sapiens). Briefly: Inhibition of mTORC1 in human LY10 cells assessed as reduction in 4E-BP1 phosphorylation at 3 uM measured after 24 hrs in presence of carfilzomib by Western blot analysis. Format: cell-based.
For experiment [12], the target named is T1, mTORC1 (Homo sapiens). Briefly: Inhibition of mTORC1 in human SLL cells assessed as reduction in c-Myc expression at 5 uM measured after 24 hrs in presence of carfilzomib by Western blot analysis. Format: cell-based.
For experiment [13], the target named is T2, Phosphatidylinositol 4,5-bisphosphate 3-kinase catalytic subunit delta isoform (Homo sapiens) (UniProt O00329).
T2 sequence (whole entry): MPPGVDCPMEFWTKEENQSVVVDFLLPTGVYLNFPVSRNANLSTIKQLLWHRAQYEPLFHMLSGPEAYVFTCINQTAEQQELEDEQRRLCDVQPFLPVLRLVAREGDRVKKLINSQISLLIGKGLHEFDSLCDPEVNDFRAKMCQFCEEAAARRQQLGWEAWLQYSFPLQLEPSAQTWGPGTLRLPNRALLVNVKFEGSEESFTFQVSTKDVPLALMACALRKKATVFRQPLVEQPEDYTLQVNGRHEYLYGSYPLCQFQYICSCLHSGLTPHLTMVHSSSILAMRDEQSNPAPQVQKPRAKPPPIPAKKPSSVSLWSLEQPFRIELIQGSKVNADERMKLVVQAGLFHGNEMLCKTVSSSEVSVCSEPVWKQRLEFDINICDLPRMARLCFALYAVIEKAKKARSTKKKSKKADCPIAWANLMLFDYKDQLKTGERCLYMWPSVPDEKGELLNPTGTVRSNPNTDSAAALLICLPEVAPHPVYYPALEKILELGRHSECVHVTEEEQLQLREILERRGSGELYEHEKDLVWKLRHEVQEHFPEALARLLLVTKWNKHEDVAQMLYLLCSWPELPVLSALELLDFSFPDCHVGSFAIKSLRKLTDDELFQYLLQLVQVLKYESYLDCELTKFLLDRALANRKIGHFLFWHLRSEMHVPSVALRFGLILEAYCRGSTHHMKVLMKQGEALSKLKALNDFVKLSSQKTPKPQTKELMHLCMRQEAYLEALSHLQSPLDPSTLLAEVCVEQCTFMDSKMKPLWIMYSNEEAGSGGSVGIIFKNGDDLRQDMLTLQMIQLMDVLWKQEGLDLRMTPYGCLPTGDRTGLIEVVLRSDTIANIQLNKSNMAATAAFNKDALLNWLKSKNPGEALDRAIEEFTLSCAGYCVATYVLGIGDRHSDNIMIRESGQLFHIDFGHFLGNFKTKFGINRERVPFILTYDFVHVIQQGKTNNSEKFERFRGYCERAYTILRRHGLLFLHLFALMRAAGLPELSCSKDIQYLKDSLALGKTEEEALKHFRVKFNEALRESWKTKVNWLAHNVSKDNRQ
Briefly: Inhibition of PI3Kdelta in human MOLT-4 cells assessed as reduction in AKT phosphorylation at S473 residue measured after 4 hrs. Format: cell-based. The note with it: dose 10-10000 nM.

Experiment [14] deals with T2, Phosphatidylinositol 4,5-bisphosphate 3-kinase catalytic subunit delta isoform (Homo sapiens). The experiment in a line: Inhibition of PI3Kdelta in human Jurkat cells assessed as reduction in AKT phosphorylation at S473 residue measured after 4 hrs. Format: cell-based. The note with it: dose 10-10000 nM.
Experiment [15] concerns the target T1, mTORC1 (Homo sapiens). The experiment in a line: Inhibition of mTORC1 in human OCILY7 cells transfected with c-myc-5'-UTR-luciferase construct assessed as reduction in c-myc translation at 3 to 5 uM incubated for 24 hrs in presence of carfilzomib by luciferase reporter gene assay. Conditions: dose 3-5 µM. Format: cell-based. (A reporter such as luciferase makes a cellular process visible.)

Experiment [16] deals with OCI-Ly7. The experiment in a line: Cytotoxicity against human OCILY7 cells transfected with empty vector assessed as reduction in cell viability at 3 to 5 uM incubated for 24 hrs in presence of carfilzomib by cell-titer glo assay. Format: functional, cell-based. The note with it: dose 3-5 µM.
In experiment [17] the test system is NCI-H929. Briefly: Cytotoxicity against human NCI-H929 cells transduced with an eIF4E-overexpressing plasmid assessed as reduction in cell viability at 5 uM incubated for 24 hrs in presence of carfilzomib by cell-titer glo assay. Format: functional, cell-based.
Experiment [18] deals with NCI-H929. Briefly: Cytotoxicity against human NCI-H929 cells transduced with an empty vector assessed as reduction in cell viability at 5 uM incubated for 24 hrs in presence of carfilzomib by cell-titer glo assay. Format: functional, cell-based.
For experiment [19], the target named is Myc proto-oncogene protein (Homo sapiens) (UniProt P01106). The experiment in a line: Inhibition of c-Myc in human LY7 cells assessed as reduction in E2F1 expression at 3 uM incubated for 24 hrs in presence of carfilzomib by Western blot analysis. Format: cell-based.
For experiment [20], the target named is Casein kinase I isoform epsilon (Homo sapiens, UniProt P49674). Briefly: Inhibition of CK1epsilon in human LY7 cells assessed as reduction in CK1epsilon autophosphorylation at 10 to 25 uM preincubated for 1 hr followed by addition of PP2A inhibitor calyculin A and measured after 15 to 60 mins by Western blot analysis. Conditions: dose 10-25 µM, time lower 75.0 min, time upper […]. Format: cell-based.

In experiment [21] the test system is OCI-Ly7. The experiment in a line: Cytotoxicity against human OCILY7 cells transfected with empty vector assessed as reduction in cell viability at 7.5 to 25 uM incubated for 24 hrs by cell-titer glo assay. Format: functional, cell-based. Conditions: dose 7.5-25 µM.
Experiment [22] has as its system LY7. Briefly: Inhibition of PI3Kdelta/CK1epsilon in human LY7 cells assessed as reduction in c-Myc expression at 25 uM incubated for 24 hrs by Western blot analysis. Format: cell-based.

Activity calls are given as the source filed them. No cut-off for these calls is given here.

T1 sequence (Q8N122 whole entry, looked up, other chains not shown): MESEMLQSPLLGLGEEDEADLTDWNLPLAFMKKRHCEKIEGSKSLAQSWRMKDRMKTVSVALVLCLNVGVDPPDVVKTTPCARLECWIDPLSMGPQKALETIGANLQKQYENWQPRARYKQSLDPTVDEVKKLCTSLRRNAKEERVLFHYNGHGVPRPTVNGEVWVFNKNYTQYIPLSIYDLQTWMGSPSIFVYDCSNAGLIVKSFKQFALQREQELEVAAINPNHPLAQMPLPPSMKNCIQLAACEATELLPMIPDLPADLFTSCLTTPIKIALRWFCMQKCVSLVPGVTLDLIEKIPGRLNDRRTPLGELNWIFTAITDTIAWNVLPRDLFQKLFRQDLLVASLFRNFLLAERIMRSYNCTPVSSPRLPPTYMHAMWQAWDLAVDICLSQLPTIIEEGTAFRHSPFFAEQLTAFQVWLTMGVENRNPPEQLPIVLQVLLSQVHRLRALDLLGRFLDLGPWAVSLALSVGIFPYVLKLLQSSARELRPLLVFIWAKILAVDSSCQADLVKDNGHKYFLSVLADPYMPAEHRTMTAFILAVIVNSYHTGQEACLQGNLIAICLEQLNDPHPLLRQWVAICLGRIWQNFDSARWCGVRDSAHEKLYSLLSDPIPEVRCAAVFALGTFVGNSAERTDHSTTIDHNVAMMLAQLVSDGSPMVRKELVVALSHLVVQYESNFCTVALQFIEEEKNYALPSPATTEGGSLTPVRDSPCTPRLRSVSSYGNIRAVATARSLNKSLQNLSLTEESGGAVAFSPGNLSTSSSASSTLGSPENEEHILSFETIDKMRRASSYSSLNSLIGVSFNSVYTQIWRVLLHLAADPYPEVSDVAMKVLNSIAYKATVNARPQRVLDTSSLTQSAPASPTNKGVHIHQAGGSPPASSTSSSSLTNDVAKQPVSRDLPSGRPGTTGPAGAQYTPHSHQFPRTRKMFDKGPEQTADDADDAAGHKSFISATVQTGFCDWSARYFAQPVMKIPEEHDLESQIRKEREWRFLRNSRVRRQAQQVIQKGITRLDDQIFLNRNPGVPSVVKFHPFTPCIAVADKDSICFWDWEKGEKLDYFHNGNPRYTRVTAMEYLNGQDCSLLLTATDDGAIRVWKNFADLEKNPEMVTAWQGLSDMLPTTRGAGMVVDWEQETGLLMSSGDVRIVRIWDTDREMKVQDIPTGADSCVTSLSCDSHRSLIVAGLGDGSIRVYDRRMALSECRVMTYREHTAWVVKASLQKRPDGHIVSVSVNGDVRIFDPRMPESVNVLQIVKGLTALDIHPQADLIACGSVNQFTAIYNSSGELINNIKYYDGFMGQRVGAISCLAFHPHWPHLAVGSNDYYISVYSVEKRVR
T1 sequence (Q9BVC4 whole entry, looked up, other chains not shown): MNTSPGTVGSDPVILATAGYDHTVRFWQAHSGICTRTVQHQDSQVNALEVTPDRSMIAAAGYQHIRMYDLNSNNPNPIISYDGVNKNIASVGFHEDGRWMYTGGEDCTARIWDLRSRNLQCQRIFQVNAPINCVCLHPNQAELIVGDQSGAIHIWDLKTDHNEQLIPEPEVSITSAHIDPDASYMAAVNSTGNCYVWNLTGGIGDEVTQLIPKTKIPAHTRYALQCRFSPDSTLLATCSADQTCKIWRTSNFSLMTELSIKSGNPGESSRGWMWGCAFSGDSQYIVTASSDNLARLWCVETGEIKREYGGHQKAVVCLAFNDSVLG
Chain of Myc proto-oncogene protein (Homo sapiens) (P01106 whole entry, canonical isoform): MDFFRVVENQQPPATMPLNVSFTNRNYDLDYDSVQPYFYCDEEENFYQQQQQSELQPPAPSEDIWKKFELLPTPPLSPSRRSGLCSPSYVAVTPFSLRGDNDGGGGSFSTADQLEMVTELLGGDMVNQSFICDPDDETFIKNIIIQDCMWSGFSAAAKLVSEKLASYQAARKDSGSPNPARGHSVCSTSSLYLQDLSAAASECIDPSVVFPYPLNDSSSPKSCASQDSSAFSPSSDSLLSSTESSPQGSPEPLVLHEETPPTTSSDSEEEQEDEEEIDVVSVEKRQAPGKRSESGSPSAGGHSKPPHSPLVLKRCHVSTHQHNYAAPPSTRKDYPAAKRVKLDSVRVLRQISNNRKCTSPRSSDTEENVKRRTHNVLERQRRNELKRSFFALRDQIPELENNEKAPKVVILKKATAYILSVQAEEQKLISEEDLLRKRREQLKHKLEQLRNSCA
Chain of Casein kinase I isoform epsilon (P49674 whole entry, looked up, canonical isoform): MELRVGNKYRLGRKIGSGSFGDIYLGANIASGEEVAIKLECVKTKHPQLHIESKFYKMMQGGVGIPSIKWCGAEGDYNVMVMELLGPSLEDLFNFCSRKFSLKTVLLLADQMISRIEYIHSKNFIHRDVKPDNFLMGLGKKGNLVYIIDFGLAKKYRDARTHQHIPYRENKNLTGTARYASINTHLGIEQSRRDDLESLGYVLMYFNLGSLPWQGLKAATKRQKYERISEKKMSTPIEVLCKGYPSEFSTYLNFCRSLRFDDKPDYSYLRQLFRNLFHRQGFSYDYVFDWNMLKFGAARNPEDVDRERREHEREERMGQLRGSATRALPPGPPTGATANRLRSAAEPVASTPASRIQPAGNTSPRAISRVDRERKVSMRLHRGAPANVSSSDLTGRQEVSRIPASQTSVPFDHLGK

With `CC[C@H](Nc1ncnc2[nH]cnc12)c1nc2cccc(F)c2c(=O)n1-c1ccccc1`, the inhibition result in experiment [1] and in experiment [5] was “inactive” each time. The outcome in [2], in [3] and in experiment [4] was Active.

Take `CC(C)Oc1ccc(-c2nn([C@@H](C)c3oc4ccc(F)cc4c(=O)c3-c3cccc(F)c3)c3ncnc(N)c23)cc1F` [UMBRALISIB]: the inhibition result in [6] is “inactive”. The inhibition entry in [7], in [8], in [9], in [10], in [11] and in experiment [12] was “Active” in each case. The inhibition entry in experiment [15], in experiment [19], in experiment [20] and in experiment [22] was “Active” each time. Besides, the inhibition entry in experiment [13] and in experiment [14] was “Dose-Dependent Effect” throughout. Moreover, the result in [16], in experiment [18] and in experiment [21] was Active. Besides, the result in experiment [17] was inactive.

The values above are taken from ChEMBL document CHEMBL5715954, “Silencing c-Myc translation as a therapeutic strategy through targeting PI3Kδ and CK1ε in hematological malignancies” (Blood, 2017).
